PubChem BioAssay AID2060493 (Molecular Pharmacology Branch, DTP, NCI, 2025)

Tested on: 616215-338-R-J1-PDC tumor spheroids, viability
Test: Anticancer human tumor 616215-338-R-J1-PDC patient-derived colon adenocarcinoma cell line growth inhibition [GQUAD]
Settings: spheroids with HUVEC and MSC; for IC50: curve of first compound; for viability, T/C: stronger effect = lower value
Outline: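 Multi-cell-type spheroids of tumor cells with HUVEC and mesenchymal stem cells, treated with drug combinations. Concentrations descend in half-log steps from near clinical Cmax, or from 10 microM where Cmax is unknown; viability read-out.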

[1] = second compound 0.0316 µM, first compound 0.0316 µM
[2] = second compound 0.0316 µM, first compound 0.1 µM
[3] = second compound 0.0316 µM, first compound 0.316 µM
[4] = second compound 0.0316 µM, first compound 1 µM
[5] = second compound 0.0316 µM, first compound 3.16 µM
[6] = second compound 0.0316 µM, first compound 10 µM
[7] = second compound 0.1 µM, first compound 0.0316 µM
[8] = second compound 0.1 µM, first compound 0.1 µM
[9] = second compound 0.1 µM, first compound 0.316 µM
[10] = second compound 0.1 µM, first compound 1 µM
[11] = second compound 0.1 µM, first compound 3.16 µM
[12] = second compound 0.1 µM, first compound 10 µM
[13] = second compound 0.316 µM, first compound 0.0316 µM
[14] = second compound 0.316 µM, first compound 0.1 µM
[15] = second compound 0.316 µM, first compound 0.316 µM
[16] = second compound 0.316 µM, first compound 1 µM
[17] = second compound 0.316 µM, first compound 3.16 µM
[18] = second compound 0.316 µM, first compound 10 µM
[19] = second compound 1 µM, first compound 0.0316 µM
[20] = second compound 1 µM, first compound 0.1 µM
[21] = second compound 1 µM, first compound 0.316 µM
[22] = second compound 1 µM, first compound 1 µM
[23] = second compound 1 µM, first compound 3.16 µM
[24] = second compound 1 µM, first compound 10 µM
[25] = second compound 3.16 µM, first compound 0.0316 µM
[26] = second compound 3.16 µM, first compound 0.1 µM
[27] = second compound 3.16 µM, first compound 0.316 µM
[28] = second compound 3.16 µM, first compound 1 µM
[29] = second compound 3.16 µM, first compound 3.16 µM
[30] = second compound 3.16 µM, first compound 10 µM
[31] = second compound 10 µM, first compound 0.0316 µM
[32] = second compound 10 µM, first compound 0.1 µM
[33] = second compound 10 µM, first compound 0.316 µM
[34] = second compound 10 µM, first compound 1 µM
[35] = second compound 10 µM, first compound 3.16 µM
[36] = second compound 10 µM, first compound 10 µM
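Also: spheroids exposed to agents for 7 days before readout.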
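For viability, T/C in this document: percent viability relative to DMSO vehicle control wells taken as 100%.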

COc1cc(C2c3cc4c(cc3C(OC3OC5COC(C)OC5C(O)C3O)C3COC(=O)C23)OCO4)cc(OC)c1O (centres undefined) + Cc1[nH]c2ccc(F)cc2c1-c1nc2c3cccnc3c3ncccc3c2[nH]1
IC50 (second compound 0.0316 µM): 0.669 µM
IC50 (second compound 0.1 µM): 1.05 µM
IC50 (second compound 0.316 µM): 0.889 µM
IC50 (second compound 1 µM): 0.584 µM
IC50 (second compound 3.16 µM): 0.541 µM
IC50 (second compound 10 µM): 0.72 µM
viability, T/C [1]: 113%
viability, T/C [2]: 97.5%
viability, T/C [3]: 64.9%
viability, T/C [4]: 41.6%
viability, T/C [5]: 32.4%
viability, T/C [6]: 25.4%
viability, T/C [7]: 105%
viability, T/C [8]: 101%
viability, T/C [9]: 67.1%
viability, T/C [10]: 54.4%
viability, T/C [11]: 36.2%
viability, T/C [12]: 28.4%
viability, T/C [13]: 84.6%
viability, T/C [14]: 104%
viability, T/C [15]: 75.7%
viability, T/C [16]: 47%
viability, T/C [17]: 31.9%
viability, T/C [18]: 22.5%
viability, T/C [19]: 95.9%
viability, T/C [20]: 97.9%
viability, T/C [21]: 65.5%
viability, T/C [22]: 37.5%
viability, T/C [23]: 41.9%
viability, T/C [24]: 25.4%
viability, T/C [25]: 86.2%
viability, T/C [26]: 96.2%
viability, T/C [27]: 63.2%
viability, T/C [28]: 36.5%
viability, T/C [29]: 40.4%
viability, T/C [30]: 27.7%
viability, T/C [31]: 93.8%
viability, T/C [32]: 87.3%
viability, T/C [33]: 67.9%
viability, T/C [34]: 40.8%
viability, T/C [35]: 34.3%
viability, T/C [36]: 23%

CC(C)(O)C1CCC(Nc2ccc3ncc(-c4cccc(C(F)(F)F)c4)n3n2)CC1 (centres undefined) + CN(C)c1ccc(Nc2c3ccc(NC(=O)CCN4CCCC4)cc3nc3cc(NC(=O)CCN4CCCC4)ccc23)cc1
IC50 (second compound 0.0316 µM): 0.634 µM
IC50 (second compound 0.1 µM): 0.726 µM
IC50 (second compound 0.316 µM): 0.64 µM
IC50 (second compound 1 µM): 0.711 µM
IC50 (second compound 3.16 µM): 0.585 µM
IC50 (second compound 10 µM): 0.447 µM
viability, T/C [1]: 111%
viability, T/C [2]: 106%
viability, T/C [3]: 101%
viability, T/C [4]: 17%
viability, T/C [5]: 0.97%
viability, T/C [6]: 1.74%
viability, T/C [7]: 96.3%
viability, T/C [8]: 104%
viability, T/C [9]: 94.7%
viability, T/C [10]: 32.7%
viability, T/C [11]: 1.16%
viability, T/C [12]: 1.76%
viability, T/C [13]: 106%
viability, T/C [14]: 101%
viability, T/C [15]: 91.2%
viability, T/C [16]: 24.1%
viability, T/C [17]: 1.32%
viability, T/C [18]: 2.9%
viability, T/C [19]: 93.6%
viability, T/C [20]: 102%
viability, T/C [21]: 103%
viability, T/C [22]: 29.2%
viability, T/C [23]: 2.03%
viability, T/C [24]: 3.51%
viability, T/C [25]: 93.1%
viability, T/C [26]: 92.8%
viability, T/C [27]: 86.3%
viability, T/C [28]: 18.4%
viability, T/C [29]: 3.83%
viability, T/C [30]: 1.76%
viability, T/C [31]: 89.9%
viability, T/C [32]: 97.8%
viability, T/C [33]: 63.8%
viability, T/C [34]: 15.6%
viability, T/C [35]: 0.42%
viability, T/C [36]: 0.5%
